By MIC is commonly meant the least concentration at which growth counts as inhibited. Read a high MIC as a need for much substance.

The values that follow come from ChEMBL document CHEMBL4011640, “Identification and Structure-Activity Relationships of Novel Compounds that Potentiate the Activities of Antibiotics in Escherichia coli” (J Med Chem, 2017).

Assay [1] relates to Escherichia coli. Nature of the assay: Antimicrobial activity against Escherichia coli BW25113 after 24 hrs by two-fold broth microdilution assay. Conditions: BW25113, 24 h. It counts as functional. In general terms: Dilution methods test growth across graded concentrations, often in twofold steps.
Assay [2] deals with Escherichia coli. Put plainly: Antimicrobial activity against Escherichia coli harboring pores in outer membrane after 24 hrs by two-fold broth microdilution assay. It counts as functional.
Assay [3] relates to Escherichia coli. Put plainly: Antimicrobial activity against Escherichia coli harboring AcrAB-TolC deletion mutant after 24 hrs by two-fold broth microdilution assay. It counts as functional.
Assay [4] has as its system Escherichia coli. Nature of the assay: Antimicrobial activity against AcrAB-TolC knocked out Escherichia coli GD102 harboring […] pores in the outer membrane after 24 hrs by two-fold broth microdilution assay. Conditions: GD102, 24 h. It counts as functional.
For the next assay, the system named is Escherichia coli BW25113. Nature of the assay: Inhibition of AcrA efflux pump in Escherichia coli BW25113 assessed as compound concentration required for potentiation of novobiocin-induced antibacterial activity by 4 fold by checkerboard assay.
Assay [5] relates to Escherichia coli. Nature of the assay: Binding affinity to Escherichia coli AG100 His-tagged AcrA at 25 uM by SPR assay.
Assay [6] has as its system Escherichia coli. Put plainly: Inhibition of AcrA in Escherichia coli assessed as increase in HT dye uptake at 25 uM measured up to 600 secs by fluorescence method.
Assay [7] can be described thus: Ratio of MIC for wild type Escherichia coli BW25113 to MIC for Escherichia coli harboring […] pores in the outer membrane. It is filed as functional, cell membranes.
Assay [8] relates to Escherichia coli. Nature of the assay: Ratio of MIC for wild type Escherichia coli harboring AcrAB-TolC deletion mutant to MIC for AcrAB-TolC knocked out Escherichia coli GD102 harboring […] pores in the outer membrane. It counts as functional.
The subject of assay [9] is Escherichia coli. Put plainly: Binding affinity to Escherichia coli AG100 His-tagged AcrA at 50 uM by SPR assay.

≈ marks a conversion by molar mass, not a printed value. Calls of active or inactive are those of the source. The calls are words filed in the database; no cut-off is given here. A value given as a limit tells only on which side of the number the result lay.

Regarding `O=C(Nc1ccc(C2=NCCN2)cc1)[C@H]1CC[C@H](C(=O)Nc2ccc(C3=NCCN3)cc2)CC1`, the MIC was found to be 50 µM (≈ 22.9 µg/mL) against Escherichia coli [1], 25 µM (≈ 11.5 µg/mL) in the assay with Escherichia coli [2], 12.5 µM (≈ 5.73 µg/mL) with Escherichia coli [3] and 6.25 µM (≈ 2.87 µg/mL) in the assay with Escherichia coli [4]. In the assay with Escherichia coli BW25113, the Activity is > 400 µM. In addition, the result with Escherichia coli [5] and in the assay on Escherichia coli [9] was inactive. For the same compound, the outcome in the assay with Escherichia coli [6] was Active. In addition, the Ratio (in [7]; in the assay with Escherichia coli [8]) was 2 throughout.
